Experimental data reported in US9995734B2, “Human T cell line assay for evaluating the immunologic identity of glatiramer acetate preparations” (Mylan Inc., priority 2013, dated 2018).
Where “and” joins values, the source holds several entries; their conditions need not be identical. Equal entries are not always repeated.

Key:
Type in all cases: cell-based, human
Donor 3 GMA T-Cell Lines = test: ATP proliferation assay (CellTiter Glo), Donor 3 GMA T-cell lines, incl. reactivity to non-canonical GA peptides; settings: Day 50 of culturing
Donor 3 COP T-Cell Lines = test: ATP proliferation assay (CellTiter Glo), Donor 3 COP T-cell lines, incl. reactivity to non-canonical GA peptides; settings: for Non-Canonical Peptide Non-Reactivity: proliferation <2 times no antigen control
Donor 4 COP T-Cell Lines = test: ATP proliferation assay (CellTiter Glo), Donor 4 COP T-cell lines, incl. reactivity to non-canonical GA peptides; settings: for Non-Canonical Peptide Non-Reactivity: proliferation <2 times no antigen control; for Proliferation (luminescent ATP assay), Mean: T-cell line 205-1F4, Day 71, autologous B-LCL; for Reactivity (proliferation), Mean: T-cell line 205-1H3, 0 μg/mL 4121.0
Donor 1 COP T-Cell Lines = test: Multiplex bead cytokine assay (FlowCytoMix), Donor 1 COP T-cell lines; settings: 222-2D8, 222-1H12, 222-2F12; Day 56; 48 hours; 1, 3, 10 μg/mL
Procedure: Culture medium was removed from cultures prepared as for proliferation assay and utilized to measure cytokine production. In most cases culture medium was collected 18-24 hours after mixing T-cells, APC, and stimulating antigen. Cytokine production was measured by ELISA or bead assay. For measuring cytokine production, 100-150 μL culture medium (100 μL if culture was to be continued, otherwise 150 μL) was removed from each well. In some cases, the culture was continued 48 hours, for a total of 72 hours of culture, and the proliferative response measured.
The concentration of multiple cytokines was measured simultaneously using FlowCytoMix™ kits (eBioscience, San Diego Calif.). These are fluorescent bead based assays consisting of beads conjugated to anti cytokine antibodies. Beads specific for each cytokine are distinguished by size and fluorescence at 670 run. Cytokine bound to each bead is detected using a phycoerythrin conjugated antibody so that the fluorescence at 585 nm reflects the concentration of cytokine in the sample. Two kits were utilized which measured different cytokine panels. The TH1/TH2 kit measures IFN-γ, IL-1β, IL-2, IL-4, IL-5, IL-6, IL-8, IL-10, IL-12p70, TNF-α (TNF) and TNF-β (LT). The TH1/TH2/TH9/TH17/TH22 kit measures […], IL-1β, IL-2, IL-4, IL-5, IL-6, IL-9, IL-10, IL-12p70, IL-13, IL-17, IL-22, and TNF-α (TNF). Both kits were used following the manufacturer's instructions.
IL-12p70, IFN-γ, IL-2, IL-10, IL-8, IL-6, IL-5, IL-4, IL-1β, TNF-α (TNF), and TNF-β (LT) secretion were measured in response to stimulation with 1, 3, or 10 μg/mL GMA, or 1, 3, or 10 μg/mL COP, as well as a no-antigen control and an MBP control, in the presence of autologous EBV-transformed B-LCL.

For EKPKVEAYKAAAAPA [STERN], the “Proliferation (luminescent ATP assay), Mean” value (Donor 3 GMA T-Cell Lines; T-cell line 165-05G, 1 μg/mL antigen, No Antigen Value 2149) was 1750 RLU, the “Proliferation (luminescent ATP assay), Mean” value (Donor 3 GMA T-Cell Lines; T-cell line 165-05G, 3 μg/mL antigen, No Antigen Value 2149) was 1606 RLU and the “Proliferation (luminescent ATP assay), Mean” value (Donor 3 GMA T-Cell Lines; T-cell line 165-05G, 10 μg/mL antigen, No Antigen Value 2149) was 1650 RLU. For the same substance, the “Proliferation (luminescent ATP assay), Mean” value (Donor 3 GMA T-Cell Lines; T-cell line 165-05G, 30 μg/mL antigen, No Antigen Value 2149) was 1572 RLU, the “Proliferation (luminescent ATP assay), Mean” value (Donor 3 GMA T-Cell Lines; T-cell line 165-E9G, 1 μg/mL antigen, No Antigen Value 1742) was 1673 RLU and the “Proliferation (luminescent ATP assay), Mean” value (Donor 3 GMA T-Cell Lines; T-cell line 165-E9G, 3 μg/mL antigen, No Antigen Value 1742) was 1480 RLU. The “Proliferation (luminescent ATP assay), Mean” value (Donor 3 GMA T-Cell Lines; T-cell line 165-E9G, 30 μg/mL antigen, No Antigen Value 1742) was 1487 RLU, the “Proliferation (luminescent ATP assay), Mean” value (Donor 3 GMA T-Cell Lines; T-cell line 165-E9G, 10 μpg/mL antigen, No Antigen Value 1742) was 1471 RLU and the “Proliferation (luminescent ATP assay), Mean” value (Donor 3 GMA T-Cell Lines; T-cell line 165-F10G, 1 μg/mL antigen, No Antigen Value 3752) was 2465 RLU. For the same substance, the “Proliferation (luminescent ATP assay), Mean” value (Donor 3 GMA T-Cell Lines; T-cell line 165-F10G, 3 μg/mL antigen, No Antigen Value 3752) was 2389 RLU, the “Proliferation (luminescent ATP assay), Mean” value (Donor 3 GMA T-Cell Lines; T-cell line 165-F10G, 10 μg/mL antigen, No Antigen Value 3752) was 2030 RLU and the “Proliferation (luminescent ATP assay), Mean” value (Donor 3 GMA T-Cell Lines; T-cell line 165-F10G, 30 μg/mL antigen, No Antigen Value 3752) was 2583 RLU. For the same substance, the “Proliferation (luminescent ATP assay), Mean” value (Donor 3 GMA T-Cell Lines; T-cell line 165-H11G, 1 μg/mL antigen, No Antigen Value 1485) was 2279 RLU, the “Proliferation (luminescent ATP assay), Mean” value (Donor 3 GMA T-Cell Lines; T-cell line 165-H11G, 3 μg/mL antigen, No Antigen Value 1485) was 2118 RLU and the “Proliferation (luminescent ATP assay), Mean” value (Donor 3 GMA T-Cell Lines; T-cell line 165-H11G, 10 μg/mL antigen, No Antigen Value 1485) was 2418 RLU. For the same substance, the “Proliferation (luminescent ATP assay), Mean” value (Donor 3 GMA T-Cell Lines; T-cell line 165-H11G, 30 μg/mL antigen, No Antigen Value 1485) was 2296 RLU and the “proliferation response to non-canonical peptides” value (Donor 3 COP T-Cell Lines; 165-E3C, separate experiment) was “did not react”.

With poly (Glu-Ala; 6:4) [GA 64] the “Non-Canonical Peptide Non-Reactivity” value (Donor 3 COP T-Cell Lines; 165-C4C) was “GA64”, the “Non-Canonical Peptide Non-Reactivity” value (Donor 3 COP T-Cell Lines; 165-F3C) was “GA 64” and the “Non-Canonical Peptide Non-Reactivity” value (Donor 3 COP T-Cell Lines; 165-F6C) was “GA64”. For the same substance, the “Nonreactive T-Cell Line” value (Donor 3 COP T-Cell Lines; Donor 3 COP lines, stimulation with the non-canonical GA peptide) was 165-C4C (Donor 3) and 165-F3C (Donor 3) and 165-F6C (Donor 3), the “Proliferation (luminescent ATP assay), Mean” value (Donor 3 COP T-Cell Lines; T-cell line 165-C4C, 1 μg/mL antigen, Day 66 of culture, 0 μg/mL 1881) was 2205 and the “Proliferation (luminescent ATP assay), Mean” value (Donor 3 COP T-Cell Lines; T-cell line 165-C4C, 3 μg/mL antigen, Day 66 of culture, 0 μg/mL 1881) was 2229. The “Proliferation (luminescent ATP assay), Mean” value (Donor 3 COP T-Cell Lines; T-cell line 165-C4C, 10 μg/mL antigen, Day 66 of culture, 0 μg/mL 1881) was 2244, the “Proliferation (luminescent ATP assay), Mean” value (Donor 3 COP T-Cell Lines; T-cell line 165-F3C, 1 μg/mL antigen, Day 77 of culture, 0 μg/mL 1563) was 1791 and the “Proliferation (luminescent ATP assay), Mean” value (Donor 3 COP T-Cell Lines; T-cell line 165-F3C, 3 μg/mL antigen, Day 77 of culture, 0 μg/mL 1563) was 1943. For the same substance, the “Proliferation (luminescent ATP assay), Mean” value (Donor 3 COP T-Cell Lines; T-cell line 165-F3C, 10 μg/mL antigen, Day 77 of culture, 0 μg/mL 1563) was 1870, the “Non-Canonical Peptide Non-Reactivity” value (Donor 4 COP T-Cell Lines; 205-1F4) was “GA 64” and the “Non-Canonical Peptide Non-Reactivity” value (Donor 4 COP T-Cell Lines; 205-1H3) was “GA 64”. For the same substance, the “Nonreactive T-Cell Line” value (Donor 4 COP T-Cell Lines; Donor 4 COP lines, stimulation with the non-canonical GA peptide) was 205-1F4 (Donor 4) and 205-1H3 (Donor 4), the “Proliferation (luminescent ATP assay), Mean” value (Donor 4 COP T-Cell Lines; 1 μg/mL antigen) was 2544 and the “Proliferation (luminescent ATP assay), Mean” value (Donor 4 COP T-Cell Lines; 3 μg/mL antigen) was 2261. The “Proliferation (luminescent ATP assay), Mean” value (Donor 4 COP T-Cell Lines; 10 μg/mL antigen) was 2080, the “Reactivity (proliferation), Mean” value (Donor 4 COP T-Cell Lines; 1 μg/mL antigen) was 4012.0 and the “Reactivity (proliferation), Mean” value (Donor 4 COP T-Cell Lines; 3 μg/mL antigen) was 4246.0. The “Reactivity (proliferation), Mean” value (Donor 4 COP T-Cell Lines; 10 μg/mL antigen) was 2054.3.

With “L-glutamic acid polymer with L-alanine, L-lysine and L-tyrosine, acetate (salt) [GA]” the “cytokine secretion, dose comparison” value (Donor 1 COP T-Cell Lines) was “highest levels of cytokines”.
